The results in this text go back to patent US20110262556A1, “SILVER/WATER, SILVER GELS AND SILVER-BASED COMPOSITIONS; AND METHODS FOR MAKING AND USING THE SAME” (AMERICAN SILVER, LLC, priority 2005, published 2011).

Values after ≈ are worked out from the molar mass of the structure shown. Where two headings read alike, the source gives them in different places.

Assay [1] deals with E. coil. The experiment in a line: Zone of inhibition, agar well. Particulars: E.coli; antibiotic amount (5-200 mcg).
The test system of assay [2] is MRSA 2. The experiment in a line: Zone of inhibition, agar well. Particulars: antibiotic amount (1-200 mcg).
In assay [3] the test system is Pseudomonas aeruginosa MDR clinical isolate (sputum). The experiment in a line: Antibiotic sensitivity, Kirby Bauer. Particulars: gram-negative isolate Pseudomonas.
Assay [4] concerns Escherichia coli MDR clinical isolate (stool). As to the kind of experiment: Antibiotic sensitivity, Kirby Bauer. Particulars: for resistance of isolate: gram-negative isolate E. coli.
In assay [5] the test system is MRSA 1. The experiment in a line: Zone of inhibition, agar well. Conditions: antibiotic amount (1-200 mcg).
For assay [6], the system named is S. aureus ATCC 6538 P. As to the kind of experiment: Zone of inhibition, agar well. Conditions: antibiotic amount (1-200 mcg).
Assay [7] relates to S.typhi. As to the kind of experiment: Zone of inhibition, agar well. Particulars: antibiotic amount (5-200 mcg).
Assay [8] deals with S. aureus. As to the kind of experiment: MIC/MBC broth microdilution. The class given is cell-based, Staphylococcus aureus. A general note: In broth dilution the organism is exposed to a series of concentrations in liquid medium.
The subject of assay [9] is S. mutans. As to the kind of experiment: MIC/MBC broth microdilution. The class given is cell-based, Streptococcus mutans.
Assay [10] concerns S. pneumoniae. The experiment in a line: MIC/MBC broth microdilution. The class given is cell-based.
Assay [11] deals with K. pneumoniae. The experiment in a line: MIC/MBC broth microdilution. The class given is cell-based, Klebsiella pneumoniae.
The subject of assay [12] is K. oxytoca. The experiment in a line: MIC/MBC broth microdilution. The format is cell-based. Particulars: K. oxytoca.
Assay [13] relates to S. pyogenes. As to the kind of experiment: MIC/MBC broth microdilution. The format is cell-based, Streptococcus pyogenes.
In assay [14] the test system is E. coli. The experiment in a line: MIC/MBC broth microdilution. The class given is cell-based, Escherichia coli.
The test system of assay [15] is S gordonii. As to the kind of experiment: MIC/MBC broth microdilution. The format is cell-based, Streptococcus gordonii.
In assay [16] the test system is S. boydii. As to the kind of experiment: MIC/MBC broth microdilution. The class given is cell-based, Shigella boydii. Conditions: S. boydii.
For assay [17], the system named is P. aeruginosa. The experiment in a line: MIC/MBC broth microdilution. The format is cell-based, Pseudomonas aeruginosa.
The test system of assay [18] is S arizona. As to the kind of experiment: MIC/MBC broth microdilution. The class given is cell-based, Salmonella arizona.
In assay [19] the test system is S. faecalis. As to the kind of experiment: MIC/MBC broth microdilution. Conditions: for MBC: read-out: MBC. The class given is cell-based, Streptococcus faecalis.
The test system of assay [20] is E. aerogenes. The experiment in a line: MIC/MBC broth microdilution. The class given is cell-based, Enterobacter aerogenes.
In assay [21] the test system is S. typhimurium. As to the kind of experiment: MIC/MBC broth microdilution. Particulars: S. typhimurium. The class given is cell-based.
For assay [22], the system named is E. cloacae. As to the kind of experiment: MIC/MBC broth microdilution. The format is cell-based. Particulars: Enterobacter cloacae; for MIC: read-out: MIC.
The mark [23] stands for this setting: Staphylococcus aureus, read-out: MBC.
Setting [24] is: Staphylococcus aureus, read-out: MIC.
[25] abbreviates: Streptococcus mutans, read-out: MBC.
Setting [26] is: Streptococcus mutans, read-out: MIC.
Where [27] appears, read: Streptococcus pneumoniae, read-out: MBC.
Setting [28] is: Streptococcus pneumoniae, read-out: MIC.
[29] abbreviates: Klebsiella pneumoniae, read-out: MIC.
Setting [30] is: Streptococcus pyogenes, read-out: MBC.
The mark [31] stands for this setting: Streptococcus pyogenes, read-out: MIC.
The mark [32] stands for this setting: Escherichia coli, read-out: MBC.
Setting [33] is: Escherichia coli, read-out: MIC.
Where [34] appears, read: Streptococcus gordonii, read-out: MBC.
Where [35] appears, read: Streptococcus gordonii, read-out: MIC.
Setting [36] is: Pseudomonas aeruginosa, read-out: MBC.
The mark [37] stands for this setting: Pseudomonas aeruginosa, read-out: MIC.
Where [38] appears, read: Enterococcus faecalis, read-out: MIC.
Where [39] appears, read: Salmonella enterica, read-out: MBC.
The mark [40] stands for this setting: Salmonella enterica, read-out: MIC.

For `CC1(C)S[C@@H]2[C@H](NC(=O)[C@H](N)c3ccccc3)C(=O)N2[C@H]1C(=O)O` [Ampicillin], the “zone of inhibition, antibiotics” value in assay [1] is 23 mm; in assay [2], 18 mm; in [5], 15 mm; in [6], “Clear”; in assay [7], 20 mm. Besides, the resistance of isolate result in assay [3] and in [4] was “resistance” in each case.
As to `CCN1CCN(C(=O)N[C@@H](C(=O)N[C@@H]2C(=O)N3C(C(=O)O)=C(CSc4nnnn4C)CS[C@H]23)c2ccc(O)cc2)C(=O)C1=O` [Cefaperazon], the MBC in assay [8] is 5.0/5.0 ppm; in assay [9] it was over 5 ppm; in assay [10] it was 0.313/0.313 ppm; in assay [12] it was over 5.0 ppm; in assay [13] it was 1.25 ppm; in [14], over 5.0 ppm. The MBC was 1.25/1.25 ppm in assay [15] (S gordonii); 0.625/0.625 ppm in [16]; 5.0 ppm in assay [17]; over 5.0 ppm in assay [18]; over 5.0 ppm in assay [20] (E. aerogenes); 2.5 ppm in assay [21]. Further, the MIC in assay [8] is reported as 5.0/5.0 ppm; in [9], 1.25 ppm; in assay [10] it was 0.313/0.313 ppm; in [11] it was over 5.0 ppm; in [12], 1.25 ppm; in [13], 0.313 ppm. Further, the MIC in assay [14] is listed as 0.625 ppm; in assay [15] (S gordonii), 1.25/1.25 ppm; in assay [16], 0.625/0.625 ppm; in assay [17] it was 2.5 ppm; in assay [18] it was 0.833 ppm; in [19] it was over 5.0 ppm. Also, the figures for the MIC in assay [20] (E. aerogenes) and in [21] were 2.92 ppm and 1.25 ppm, respectively.
For the compound `CO/N=C(\C(=O)N[C@@H]1C(=O)N2C(C(=O)O)=C(COC(C)=O)CS[C@H]12)c1csc(N)n1` [Cefotaxime], the “zone of inhibition, antibiotics” value is recorded as 21 mm in assay [1], “-Clear” in assay [2], 26 mm in assay [6] and 22 mm in assay [7].
In the case of `O=C(O)c1cn(C2CC2)c2cc(N3CCNCC3)c(F)cc2c1=O` [Ciprofloxacin], the “zone of inhibition, antibiotics” value in [1] came to 29 mm; in assay [2], 14 mm; in assay [5], 14 mm; in assay [6], 28 mm; in assay [7], 25 mm.
With `Cc1onc(-c2ccccc2Cl)c1C(=O)N[C@@H]1C(=O)N2[C@@H]1SC(C)(C)[C@@H]2C(=O)O` [Cloxacillin], the “zone of inhibition, antibiotics” value was 13 mm in [2], “Clear” in assay [5] and “Clear” in assay [6].
Regarding `CC[C@H]1OC(=O)[C@H](C)[C@@H](O[C@H]2C[C@@](C)(OC)[C@@H](O)[C@H](C)O2)[C@H](C)[C@@H](O[C@@H]2O[C@H](C)C[C@H](N(C)C)[C@H]2O)[C@](C)(O)C[C@@H](C)C(=O)[C@H](C)[C@@H](O)[C@]1(C)O` [Erythromycin], the MBC in assay [8] (setting [23]) was over 5 µg/mL; in assay [9] (setting [25]), 0.019 µg/mL (≈ 0.0259 µM); in [10] (setting [27]), 0.004 µg/mL (≈ 0.00545 µM); in assay [13] (setting [30]), 0.019 µg/mL (≈ 0.0259 µM); in assay [14] (setting [32]) it was over 5 µg/mL; in assay [15] (setting [34]) it was 0.019 µg/mL (≈ 0.0259 µM). Moreover, the MBC was over 5 µg/mL in assay [16] (Shigella boydii, read-out: MBC); over 5 µg/mL in assay [17] (setting [36]); over 5 µg/mL in assay [18] (Salmonella, read-out: MBC); 1.25 µg/mL (≈ 1.7 µM) in assay [19] (Enterococcus faecalis); over 5 µg/mL in assay [21] (setting [39]). For the same compound, the MIC is 0.039 µg/mL (≈ 0.0531 µM) in assay [8] (setting [24]); 0.009 µg/mL (≈ 0.0123 µM) in assay [9] (setting [26]); 0.002 µg/mL (≈ 0.00273 µM) in [10] (setting [28]); over 5 µg/mL in assay [11] (setting [29]); over 5 µg/mL in assay [12] (Klebsiella oxytoca, read-out: MIC); 0.003 µg/mL (≈ 0.00409 µM) in [13] (setting [31]). For the same compound, the MIC in [22] was over 5 µg/mL; in assay [14] (setting [33]) it was 5 µg/mL (≈ 6.81 µM); in assay [15] (setting [35]), 0.005 µg/mL (≈ 0.00681 µM); in assay [16] (Shigella boydii, read-out: MIC), 5 µg/mL (≈ 6.81 µM); in [17] (setting [37]), 2.5 µg/mL (≈ 3.41 µM); in assay [18] (Salmonella, read-out: MIC), 4.17 µg/mL (≈ 5.68 µM). Also, the MIC in assay [19] (setting [38]) was 0.009 µg/mL (≈ 0.0123 µM); in assay [20] (Klebsiella aerogenes, E. aerogenes, read-out: MIC), over 5 µg/mL; in assay [21] (setting [40]), 5 µg/mL (≈ 6.81 µM).
Consider `CCC[C@@H]1C[C@@H](C(=O)N[C@@H]([C@H]2O[C@H](SC)[C@H](O)[C@@H](O)[C@H]2O)[C@@H](C)O)N(C)C1` [Lincomycin], for which the “zone of inhibition, antibiotics” value in assay [2] is recorded as “Clear”; in assay [5] it was “Clear”; in [6], 1Clear.
In the case of `CC1COc2c(N3CCN(C)CC3)c(F)cc3c(=O)c(C(=O)O)cn1c23` (stereo not drawn) [Ofloxacin], the MBC in [8] (setting [23]) was 0.625 µg/mL (≈ 1.73 µM); in [9] (setting [25]), over 5 µg/mL; in [10] (setting [27]), 2.5 µg/mL (≈ 6.92 µM); in [11] (Klebsiella pneumoniae), 0.625 µg/mL (≈ 1.73 µM); in assay [13] (setting [30]) it was 2.5 µg/mL (≈ 6.92 µM); in [22], 0.156 µg/mL (≈ 0.432 µM). Further, the MBC worked out at 0.156 µg/mL (≈ 0.432 µM) in assay [14] (setting [32]); 5 µg/mL (≈ 13.8 µM) in assay [15] (setting [34]); 0.156 µg/mL (≈ 0.432 µM) in [16] (Shigella boydii, read-out: MBC); 0.313 µg/mL (≈ 0.866 µM) in assay [17] (setting [36]); 0.078 µg/mL (≈ 0.216 µM) in assay [18] (Salmonella, read-out: MBC); 5 µg/mL (≈ 13.8 µM) in assay [19] (Enterococcus faecalis). In addition, the MBC in assay [20] (Klebsiella aerogenes) and in [21] (setting [39]) was 0.156 µg/mL (≈ 0.432 µM) in each case. The MIC in assay [8] (setting [24]) came out at 0.417 µg/mL (≈ 1.15 µM); in assay [9] (setting [26]), 2.5 µg/mL (≈ 6.92 µM); in [10] (setting [28]), 2.5 µg/mL (≈ 6.92 µM); in [11] (setting [29]), 0.417 µg/mL (≈ 1.15 µM); in assay [13] (setting [31]) it was 1.25 µg/mL (≈ 3.46 µM); in assay [22], 0.156 µg/mL (≈ 0.432 µM). Moreover, the MIC in assay [14] (setting [33]) was determined as 0.104 µg/mL (≈ 0.288 µM); in [15] (setting [35]), 2.5 µg/mL (≈ 6.92 µM); in [16] (Shigella boydii, read-out: MIC) it was 0.078 µg/mL (≈ 0.216 µM); in [17] (setting [37]) it was 0.156 µg/mL (≈ 0.432 µM); in assay [18] (Salmonella, read-out: MIC), 0.078 µg/mL (≈ 0.216 µM); in assay [19] (setting [38]) it was 1.25 µg/mL (≈ 3.46 µM). In addition, the MIC in [20] (Klebsiella aerogenes) and in [21] (setting [40]) was 0.078 µg/mL (≈ 0.216 µM) in each case. Further, the “zone of inhibition, antibiotics” value in [2] came to 16 mm; in [5], 15 mm.
As to `CCn1cc(C(=O)O)c(=O)c2cc(F)c(N3CCN(C)CC3)cc21` [Peflofloxacin], the “zone of inhibition, antibiotics” value was “Clear” in assay [1]; 13 mm in [2]; 11 mm in [5]; 30 mm in assay [6]; “clear” in assay [7].
For `CCN1CCN(C(=O)N[C@@H](C(=O)N[C@@H]2C(=O)N3[C@@H]2SC(C)(C)[C@@H]3C(=O)O)c2ccccc2)C(=O)C1=O` [Piperacillin], the “zone of inhibition, antibiotics” value was 22 mm in assay [1] and 16 mm in assay [7].
For `NC[C@H]1O[C@H](O[C@H]2[C@H](O)[C@@H](O[C@H]3O[C@H](CO)[C@@H](O)[C@H](N)[C@H]3O)[C@H](N)C[C@@H]2N)[C@H](O)[C@@H](O)[C@@H]1O` [kanamycin], in [4] (E.c, Kirby-Bauer antibiotic disc), the “Zone size (mm)” value is 14 mm.
As for `CCn1cc(C(=O)O)c(=O)c2ccc(C)nc21` [nalidixic acid], the resistance of isolate result in [3] and in assay [4] was “resistance” in each case.
